Reference: patent US9937198B2, “Multi-functional composition and preparation method and application thereof” (Suzhou Sciscape Bio-Pharmaceutical Technology Co., Ltd., priority 2013, dated 2018)

Tests used:
[1] = system: normal mice; experiment: Defecation quantity and body weight changes in normal mice (sliming); assay type: in vivo
Procedure: Male ICR mice, 8 weeks old and 20±2 g in body weight, were purchased from Beijing HFK Bioscience Co., Ltd.
The solutions of Compositions 1 to 7 prepared in this example were used.
After the mice were fed normally for 3 days, they were given no food but water for 4 h. By body weight, they were randomly divided into 11 groups, i.e., a blank control group, administration groups 1 to 7 and negative control groups 1 to 3. The mice in administration groups 1 to 7 were intragastrically administered with the solutions of Compositions 1 to 7 respectively at a dose of 13.3 mL/kg body weight. On the other hand, the mice in the blank control group were intragastrically given sterile water for medical use at a dose of 13.3 mL/kg body weight. Further, the mice in negative control groups 1 to 3 were intragastrically given the solution of trehalose (0.15 g/mL), the solution of validamycin (0.3 mg/mL) and the solution of algal polysaccharides (0.15 g/mL) respectively at a dose of 13.3 mL/kg body weight. At 20 to 30 min post administration, mice were allowed to eat freely and the defecation quantity in the mice from each group before and after administration (average feces quantity of the mice in each group), the percentages of defecation quantities before and after administration based on the total defecation quantities throughout the experiment and the body weight were recorded.

[2] = system: patients with type-II diabetes; experiment: Long-term experiment for treatment in human diabetics; assay type: in vivo; conditions: for Blood glucose level after administration: 200 mL oral
Procedure: Six patients with type-II diabetes were fasted overnight and then measured for fasting blood glucose level. Then they were orally administered with 200 mL of the solution of Composition 1, or 200 mL of solution of trehalose (0.15 g/mL), or 200 mL of the solution of validamycin (0.3 mg/mL), or 200 mL of distilled water, as stated in Table 3.4. The blood glucose level in every patient was tested before administration and one day, one week, two weeks and one month post administration.

[3] = after administration, 13.3 mL/kg intragastric

SMILES	Body weight [1, 3] [g]	Percentage of defecation quantity in each stage based the total defecation quantity [1, 3] [%]	defecation quantity [1, 3] [g]	Body weight ([1]; before administration) [g]	Percentage of defecation quantity in each stage based the total defecation quantity ([1]; before administration) [%]	defecation quantity ([1]; before administration) [g]	Blood glucose level after administration ([2]; 1 month, individual type-II diabetics) [mmol/L]	Blood glucose level after administration ([2]; 1 week, individual type-II diabetics) [mmol/L]	Blood glucose level after administration ([2]; 2 weeks, individual type-II diabetics) [mmol/L]	Blood glucose level after administration ([2]; 1 day, individual type-II diabetics) [mmol/L]	Blood glucose level before administration ([2]; fasting baseline, individual type-II diabetics, long-term) [mmol/L]	effect on blood glucose level in patients with type-II diabetes, long-term ([2]; up to one month)
OCC1=C[C@H](N[C@H]2C[C@H](CO)[C@@H](O[C@@H]3O[C@H](CO)[C@@H](O)[C@H](O)[C@H]3O)[C@H](O)[C@H]2O)[C@H](O)[C@@H](O)[C@@H]1O [validamycin]	19.45	35.26	0.67 ± 0.05	20.12	64.74	1.23 ± 0.04	8.9	9.0	8.7	8.7	8.8	had no influence on blood glucose level
OC[C@H]1O[C@H](O[C@H]2O[C@H](CO)[C@@H](O)[C@H](O)[C@H]2O)[C@H](O)[C@@H](O)[C@@H]1O [trehalose]	19.10	37.84	0.70 ± 0.01	19.80	62.16	1.15 ± 0.03						
